# Measured values published in patent US12297201B2, “Substituted pyrrolo[2,3-d]pyrimidines as antimicrobials” (BIOVERSYS AG, priority 2018, dated 2025).
# Key:
# [1] = tested on: Staphylococcus aureus (S. aureus) 11540 strain; assay: standard microdilution assay to determine MIC against S. aureus; type: cell-based
# Experimental: (§1) The in vitro activity of the compounds of the present disclosure can be determined. Antimicrobial testing is typically performed to determine the minimum inhibitory concentration (MIC). Minimum inhibitory concentrations (MICs) are determined by the microdilution method in a final volume of 100 μl according to protocols outlined by The Clinical and Laboratory Standards Institute (CLSI). Performance standards for reference strains are assessed within the same experimental design to maintain quality control. See, for example, Clinical Laboratory Standards Institute: Methods for dilution antimicrobial susceptibility tests for bacteria that grow aerobically M7-A8. Approved Standard-Eighth Edition. Wayne, Pa.: CLSI; December 2008; and Clinical Laboratory Standards Institute: Performance Standards for Antimicrobial Susceptibility Testing M100-S20; Approved Standard-Twentieth Edition. Wayne, Pa.: CLSI; June 2010. The compounds of the present disclosure were tested for antimicrobial activity. The Compounds 1-105 were run against Escherichia coli (E. coli) strain ATCC25922 and against Staphylococcus aureus (S. aureus) 11540 strain using a standard microdilution assay to determine minimum inhibitory concentrations (MICs). […] It will be recognized by one skilled in the art that the compounds can be assessed against other bacterial organisms and that the presentation of data for activity against Escherichia coli and Staphylococcus aureus are illustrative and in no way is intended to limit the scope of the present disclosure. The compounds of the present disclosure can be assayed against a range of other microorganisms depending upon the performance activity desired to be gathered. Furthermore, the “+” and “−” representation and the selection of a cutoff value of 16 micrograms/mL is also illustrative and in no way is intended to limit the scope of the present disclosure.
# [2] = tested on: Escherichia coli (E. coli) strain ATCC25922; assay: standard microdilution assay to determine MIC against E. coli; type: cell-based
# Experimental: as §1
SMILES,MIC [1] [mg/L],MIC [2] [mg/L]
C[C@H](N)CCCc1cc(Cl)c(F)c(-c2cc3cn(-c4ccc([C@@H]5CCC[C@@H](CCOC(=N)N)N5C)cc4)c(=O)nc3[nH]2)c1 [Compound 2],≤ 16,≤ 16
CSCCN1[C@H](CCOC(=N)N)CCC[C@H]1c1ccc(-n2cc3cc(-c4cc(CCC[C@H](C)N)cc(Cl)c4F)[nH]c3nc2=O)cc1 [Compound 8],≤ 16,≤ 16
CCN1[C@H](CCOC(=N)N)CCC[C@H]1c1ccc(-n2cc3cc(-c4cc(CCC[C@H](C)N)cc(Cl)c4F)[nH]c3nc2=O)cc1 [Compound 14],≤ 16,≤ 16
COC(=O)CN1[C@H](CCOC(=N)N)CCC[C@H]1c1ccc(-n2cc3cc(-c4cc(CCC[C@H](C)N)cc(Cl)c4F)[nH]c3nc2=O)cc1 [Compound 11],≤ 16,≤ 16
CN1[C@H](CCOC(=N)N)CCC[C@H]1c1ccc(-n2cc3cc(-c4cc(CCC[C@@H](N)COC(=N)N)cc(Cl)c4F)[nH]c3nc2=O)cc1 [Compound 19],≤ 16,≤ 16
CCCN1[C@H](CCOC(=N)N)CCC[C@H]1c1ccc(-n2cc3cc(-c4cc(CCC[C@H](C)N)cc(Cl)c4F)[nH]c3nc2=O)cc1 [Compound 7],≤ 16,≤ 16
C[C@H](N)CCCc1cc(Cl)c(F)c(-c2cc3cn(-c4ccc([C@@H]5CCC[C@@H](CCOC(=N)N)N5CCC5CCOCC5)cc4)c(=O)nc3[nH]2)c1 [Compound 4],≤ 16,≤ 16
C[C@H](N)CCCc1cc(Cl)c(F)c(-c2cc3cn(-c4ccc([C@@H]5CCC[C@@H](CCOC(=N)N)N5C5CC5)cc4)c(=O)nc3[nH]2)c1 [Compound 16],≤ 16,≤ 16
COC(=N)NCC[C@@H]1CCC[C@@H](c2ccc(-n3cc4cc(-c5cc(CCC[C@H](C)N)cc(Cl)c5F)[nH]c4nc3=O)cc2)N1 [Compound 20],≤ 16,≤ 16
COCCN1[C@H](CCOC(=N)N)CCC[C@H]1c1ccc(-n2cc3cc(-c4cc(CCC[C@H](C)N)cc(Cl)c4F)[nH]c3nc2=O)cc1 [Compound 6],≤ 16,≤ 16
C[C@H](N)CCCc1cc(Cl)c(F)c(-c2cc3cn(-c4ccc([C@@H]5CCC[C@@H](CCOC(=N)N)N5CCF)cc4)c(=O)nc3[nH]2)c1 [Compound 5],≤ 16,≤ 16
C[C@H](N)CCCc1cc(Cl)c(F)c(-c2cc3cn(-c4ccc([C@@H]5CCC[C@@H](CCOC(=N)N)N5CCCF)cc4)c(=O)nc3[nH]2)c1 [Compound 3],≤ 16,≤ 16
C=CCN1[C@H](CCOC(=N)N)CCC[C@H]1c1ccc(-n2cc3cc(-c4cc(CCC[C@H](C)N)cc(Cl)c4F)[nH]c3nc2=O)cc1 [Compound 13],≤ 16,≤ 16
C=C[C@H](N)CCCc1cc(Cl)c(F)c(-c2cc3cn(-c4ccc([C@@H]5CCC[C@@H](CCOC(=N)N)N5C)cc4)c(=O)nc3[nH]2)c1 [Compound 18],≤ 16,≤ 16
C[C@H](N)CCCc1cc(Cl)c(F)c(-c2cc3cn(-c4ccc([C@@H]5CCC[C@@H](CCOC(=N)N)N5CCC5CC5)cc4)c(=O)nc3[nH]2)c1 [Compound 9],≤ 16,≤ 16
CC(C)CN1[C@H](CCOC(=N)N)CCC[C@H]1c1ccc(-n2cc3cc(-c4cc(CCC[C@H](C)N)cc(Cl)c4F)[nH]c3nc2=O)cc1 [Compound 10],≤ 16,≤ 16
C[C@H](N)CCCc1cc(Cl)c(F)c(-c2cc3cn(-c4ccc([C@@H]5CCC[C@@H](CCOC(=N)N)N5CCCO)cc4)c(=O)nc3[nH]2)c1 [Compound 12],≤ 16,≤ 16
C[C@H](N)CCCc1cc(Cl)c(F)c(-c2cc3cn(-c4ccc([C@@H]5CCC[C@@H](CCOC(=N)N)N5CCCSC(=N)N)cc4)c(=O)nc3[nH]2)c1 [Compound 15],≤ 16,≤ 16
CN1[C@H](CCOC(=N)N)CCC[C@H]1c1ccc(-n2cc3cc(-c4cc(CCC[C@@H](N)C5CC5)cc(Cl)c4F)[nH]c3nc2=O)cc1 [Compound 17],≤ 16,≤ 16
